Assay results reported in patent US9365558B2 (BRISTOL-MYERS SQUIBB COMPANY, priority 2013, dated 2016).

The compounds below were run against Human MGAT-2 (Homo sapiens (Human), UniProt Q3SYC2) (assay: MGAT LCMS Assay). Details: recombinant MGAT-2 membranes expressed in Sf9 cells; 100 μM 2-oleoylglycerol, 15 μM oleoyl-Coenzyme A; LC/MS of diolein; read-out: h-MGAT LCMS IC50.
Assay type: biochemical
Experimental: Assay plates were run through a fully automated robotics system and shaken for 5 seconds every minute for a total 10 minutes. The reactions were then quenched with 120 μL of ice cold methanol containing 1 μg/mL 1,2-distearoyl-rac-glycerol as the internal standard. Plates were shaken for 2 minutes and spun down to remove protein precipitation. After the spin, samples were transferred to LC/MS compatible PCR plates. For LC/MS analysis, a ThermoFisher Surveyor pump, utilizing a Waters Symmetry C8, 50×2.1 mm column, was used for the chromatography of enzyme products. The buffer system consists of 0.1% formic acid in water with a mobile phase consisting 0.1% formic acid in methanol. The shallow gradient is 90-100% mobile phase in 0.2 min with a total run time of 2.3 min. The first 0.5 minutes of each injection was diverted to waste to eliminate the presence of Phosphate buffer in the enzymatic reaction. The column was run at 0.6 mL/min and a temperature of 65° C. Mass spectrometry analysis of the samples was performed on a ThermoFisher Quantum Triple quad utilizing APCI (+) as the mode of ionization. […] The ratio of Diolein to internal standard (Peak Area Ratio) is utilized to calculate IC50 values.

Chain of Human MGAT-2 (Q3SYC2 whole entry): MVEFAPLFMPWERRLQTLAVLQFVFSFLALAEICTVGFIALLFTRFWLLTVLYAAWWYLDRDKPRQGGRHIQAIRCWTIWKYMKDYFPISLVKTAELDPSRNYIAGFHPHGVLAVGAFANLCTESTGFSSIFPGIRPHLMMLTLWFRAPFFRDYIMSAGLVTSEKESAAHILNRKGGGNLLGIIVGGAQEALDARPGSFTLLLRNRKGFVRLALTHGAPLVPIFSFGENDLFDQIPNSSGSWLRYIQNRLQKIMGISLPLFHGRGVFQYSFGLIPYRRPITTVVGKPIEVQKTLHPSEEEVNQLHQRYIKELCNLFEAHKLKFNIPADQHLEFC

Row | IC50 | Compound
1 | 17 nM | CCS(=O)(=O)NC(=O)C1=C(c2ccc(C)cc2)C[C@](c2ccc(OCCCCCC(F)(F)F)cc2)(C(F)(F)F)NC1=O [Example 1, (S)—N-(Ethylsulfonyl)-2-oxo-4-(p-tolyl)-6-(4-((6,6,6-trifluorohexyl)oxy)phenyl)-6-(trifluoromethyl)-1,2,5,6-tetrahydropyridine-3-carboxamide]
2 | 20 nM | CCCCCCC#C[C@]1(C(F)(F)F)CC(c2ccc(C)cc2)=C(C(=O)NS(=O)(=O)C2CC2)C(=O)N1 [Example 2]
3 | 9 nM | Cc1ccc(C2=C(C(=O)NS(=O)(=O)C3CC3)C(=O)N[C@@](c3ncc(CCCCCCC(F)(F)F)s3)(C(F)(F)F)C2)cc1 [Example 3]
4 | 17 nM | CN(C)c1ccc(C2=C(C(=O)NS(=O)(=O)C3CC3)C(=O)N[C@@](c3ccc(OCCCCCC(F)(F)F)cc3)(C(F)(F)F)C2)cc1 [Example 4]
5 | 38 nM | CS(=O)(=O)NC(=O)C1=C(c2ccc(OC(F)F)cc2)C[C@](c2ccc(OCCCCCC(F)(F)F)cc2)(C(F)(F)F)NC1=O [Example 5]
6 | 4 nM | Cc1ccc(C2=C(C(=O)NS(=O)(=O)C3CC3)C(=O)N[C@@](c3ccc(OCCCCCC(F)(F)F)cc3F)(C(F)(F)F)C2)cc1 [Example 6]
7 | 12 nM | CCc1ccc(C2=C(C(=O)NS(C)(=O)=O)C(=O)N[C@@](c3ccc(OCCCC(F)(F)F)cc3)(C(F)(F)F)C2)s1 [Example 7]
8 | 33 nM | CCS(=O)(=O)NC(=O)C1=C(c2ccc(OC(F)F)cc2)C[C@](c2ccc(OCCCCCC(F)(F)F)cc2)(C(F)(F)F)NC1=O [Example 8]
9 | 16 nM | Cc1ccc(C2=C(C(=O)NS(C)(=O)=O)C(=O)N[C@@](c3ccc(OCCCCCC(F)(F)F)cc3)(C(F)(F)F)C2)cc1 [Example 9]
10 | 5 nM | CCc1ccc(C2=C(C(=O)NS(=O)(=O)C3CC3)C(=O)N[C@@](c3ccc(OCCCCCC(F)(F)F)cc3)(C(F)(F)F)C2)s1 [Example 10]
11 | 12 nM | Cc1ccc(C2=C(C(=O)NS(=O)(=O)C3CC3)C(=O)N[C@@](c3ccc(OCCCCCC(F)(F)F)cc3)(C(F)(F)F)C2)cc1 [Example 11]
12 | 24 nM | CCCCCCC#C[C@]1(C(F)(F)F)CC(c2ccc(OC(F)F)cc2)=C(C(=O)NS(C)(=O)=O)C(=O)N1 [Example 12]
13 | 6 nM | Cc1ccc(C2=C(C(=O)NS(C)(=O)=O)C(=O)N[C@@](c3ccc(OCCCC(F)(F)F)cc3)(C(F)(F)F)C2)cc1 [Example 13]
14 | 54 nM | CS(=O)(=O)NC(=O)C1=C(c2ccc(OC(F)F)cc2)C[C@](c2ccc(OCCCC(F)(F)F)cc2)(C(F)(F)F)NC1=O [Example 14]
15 | 4 nM | CCCCCCC#C[C@]1(C(F)(F)F)CC(c2ccc(C)cc2)=C(C(=O)NS(C)(=O)=O)C(=O)N1 [Example 15]
16 | 18 nM | Cc1ccc(C2=C(C(=O)NS(=O)(=O)C3CC3)C(=O)N[C@@](c3ccc(OCCCC(F)(F)F)cc3)(C(F)(F)F)C2)cc1 [Example 16]
17 | 26 nM | Cc1ccc(C2=C(C(=O)NS(C)(=O)=O)C(=O)N[C@@](c3ccc(OCc4ccccc4)cc3)(C(F)(F)F)C2)cc1 [Example 17]
18 | 52 nM | COc1ccc(C2=C(C(=O)NS(=O)(=O)C3CC3)C(=O)N[C@@](c3ccc(OCCCCCC(F)(F)F)cc3)(C(F)(F)F)C2)cn1 [Example 18]
19 | 17 nM | CCS(=O)(=O)NC(=O)C1=C(c2ccc(C)cc2)C[C@](c2ccc(OCCCC(F)(F)F)cc2)(C(F)(F)F)NC1=O [Example 19]
20 | 4 nM | CC(C)(C)c1ccc(C2=C(C(=O)NS(=O)(=O)C3CC3)C(=O)N[C@@](c3ccc(OCCCCCC(F)(F)F)cc3)(C(F)(F)F)C2)cc1 [Example 20]
21 | 7 nM | CC(C)(C)c1ccc(C2=C(C(=O)NS(C)(=O)=O)C(=O)N[C@@](c3ccc(OCCCCCC(F)(F)F)cc3)(C(F)(F)F)C2)cc1 [Example 21]
22 | 3 nM | COc1ccc(C2=C(C(=O)NS(=O)(=O)C3CC3)C(=O)N[C@@](c3ccc(OCCCCCC(F)(F)F)cc3F)(C(F)(F)F)C2)cc1 [Example 22]
23 | 4 nM | O=C1N[C@@](c2ccc(OCCCCCC(F)(F)F)cc2)(C(F)(F)F)CC(c2ccc(CC3CC3)cc2)=C1C(=O)NS(=O)(=O)C1CC1 [Example 23]
24 | 114 nM | Cc1ccc(C2=C(C(=O)NS(C)(=O)=O)C(=O)N[C@](C)(CCC(C)C)C2)cc1 [Example 24]
25 | 24 nM | CN(C)c1ccc(C2=C(C(=O)NS(C)(=O)=O)C(=O)N[C@@](c3ccc(OCCCC(F)(F)F)cc3)(C(F)(F)F)C2)cc1 [Example 25]
26 | 19 nM | CC(C)(C)c1ccc(C2=C(C(=O)NS(C)(=O)=O)C(=O)N[C@@](c3ccc(OCCCC(F)(F)F)cc3)(C(F)(F)F)C2)cc1 [Example 26]

Row | IC50 | Compound
27 | 8 nM | COc1ccc(C2=C(C(=O)NS(=O)(=O)C3CC3)C(=O)N[C@@](c3ccc(OCCCC(F)(F)F)cc3)(C(F)(F)F)C2)cc1 [Example 27]
28 | 348 nM | Cc1ccc(C2=C(C(=O)NS(=O)(=O)C(C)(C)C)C(=O)N[C@@](c3ccc(OCCCC(F)(F)F)cc3)(C(F)(F)F)C2)cc1 [Example 28]
29 | 84 nM | Cc1ccc(C2=C(C(=O)NS(=O)(=O)c3ccccc3)C(=O)N[C@@](c3ccc(OCCCC(F)(F)F)cc3)(C(F)(F)F)C2)cc1 [Example 29]
30 | 5 nM | Cc1ccc(C2=C(C(=O)NS(=O)(=O)C(F)(F)F)C(=O)N[C@@](c3ccc(OCCCC(F)(F)F)cc3)(C(F)(F)F)C2)cc1 [Example 30]
31 | 25 nM | Cc1ccc(C2=C(C(=O)NS(=O)(=O)N(C)C)C(=O)N[C@@](c3ccc(OCCCCCC(F)(F)F)cc3)(C(F)(F)F)C2)cc1 [Example 32]
32 | 11 nM | Cc1ccc(C2=C(C(=O)NS(=O)(=O)C3CC3)C(=O)N[C@@](C#CCCCCCC(F)(F)F)(C(F)(F)F)C2)cc1 [Example 33]
33 | 295 nM | COc1ccc(C2=C(C(=O)NS(C)(=O)=O)C(=O)N[C@@](c3ccc(OCCCC(F)(F)F)cc3)(C(F)(F)F)C2)cc1 [Example 34]
34 | 353 nM | COc1ccc(C2=C(C(=O)NS(=O)(=O)N(C)C)C(=O)N[C@@](c3ccc(OCCCC(F)(F)F)cc3)(C(F)(F)F)C2)cc1 [Example 35]
35 | 52 nM | COc1ccc(C2=C(C(=O)NS(C)(=O)=O)C(=O)N[C@@](c3ccc(OCCCCCC(F)(F)F)cc3F)(C(F)(F)F)C2)cc1 [Example 36]
36 | 6 nM | O=C1N[C@@](c2ccc(OCCCCCC(F)(F)F)cc2)(C(F)(F)F)CC(c2ccc(OC(F)F)cc2)=C1C(=O)NS(=O)(=O)C1CC1 [Example 37]
37 | 43 nM | COc1ccc(C2=C(C(=O)NS(=O)(=O)C3CC3)C(=O)N[C@@](c3ccc(OCCCCCC(F)(F)F)cc3)(C(F)(F)F)C2)cc1 [Example 38]
38 | 23 nM | CN(C)S(=O)(=O)NC(=O)C1=C(c2ccc(OC(F)F)cc2)C[C@](c2ccc(OCCCCCC(F)(F)F)cc2)(C(F)(F)F)NC1=O [Example 39]
39 | 2 nM | CCCCCCCc1cnc([C@]2(C(F)(F)F)CC(c3ccc(C)cc3)=C(C(=O)NS(=O)(=O)C3CC3)C(=O)N2)s1 [Example 40]
40 | 235 nM | CCCCCCCc1cnc([C@@]2(C(F)(F)F)CC(c3ccc(C)cc3)=C(C(=O)NS(=O)(=O)C3CC3)C(=O)N2)s1 [Example 41]
41 | 20 nM | CC(C)n1ccc(C2=C(C(=O)NS(C)(=O)=O)C(=O)N[C@@](c3ccc(OCCCC(F)(F)F)cc3F)(C(F)(F)F)C2)n1 [Example 43]
42 | 7 nM | CS(=O)(=O)NC(=O)C1=C(c2ccn(C3CCC3)n2)C[C@](c2ccc(OCCCC(F)(F)F)cc2F)(C(F)(F)F)NC1=O [Example 44]
43 | 81 nM | O=C1N[C@@](c2ccc(OCCCC(F)(F)F)cc2F)(C(F)(F)F)CC(c2ccn(C3CC3)n2)=C1C(=O)NS(=O)(=O)C1CC1 [Example 46]
44 | 16 nM | CS(=O)(=O)NC(=O)C1=C(c2ccn(C3CC3)n2)C[C@](c2ccc(OCCCC(F)(F)F)cc2F)(C(F)(F)F)NC1=O [Example 47]
45 | 47 nM | CCn1ccc(C2=C(C(=O)NS(=O)(=O)C3CC3)C(=O)N[C@@](c3ccc(OCCCC(F)(F)F)cc3F)(C(F)(F)F)C2)n1 [Example 48]
46 | 3 nM | CC(C)n1ccc(C2=C(C(=O)NS(=O)(=O)C3CC3)C(=O)N[C@@](c3ccc(CCCCC(F)(F)F)cc3F)(C(F)(F)F)C2)c1 [Example 51]
47 | 10 nM | O=C1N[C@@](c2ccc(CCCCC(F)(F)F)cc2F)(C(F)(F)F)CC(c2ccn(CC3CC3)n2)=C1C(=O)NS(=O)(=O)C1CC1 [Example 52]
48 | 89 nM | CCn1ccc(C2=C(C(=O)NS(=O)(=O)C3CC3)C(=O)N[C@@](c3ccc(CCCCC(F)(F)F)cc3F)(C(F)(F)F)C2)n1 [Example 53]
49 | 59 nM | CC(C)Cn1ccc(C2=C(C(=O)NS(=O)(=O)C3CC3)C(=O)N[C@@](c3ccc(CCCCC(F)(F)F)cc3F)(C(F)(F)F)C2)n1 [Example 54]
50 | 62 nM | CC(C)Cn1ccc(C2=C(C(=O)NS(=O)(=O)C3CC3)C(=O)N[C@@](c3ccc(OCCCC(F)(F)F)cc3F)(C(F)(F)F)C2)n1 [Example 55]
51 | 13 nM | O=C1N[C@@](c2ccc(OCCCC(F)(F)F)cc2F)(C(F)(F)F)CC(c2ccn(CC3CC3)n2)=C1C(=O)NS(=O)(=O)C1CC1 [Example 56]
52 | 37 nM | O=C1N[C@@](c2ccc(OCCCC(F)(F)F)cc2F)(C(F)(F)F)CC(c2ccn(CC3CCC3)n2)=C1C(=O)NS(=O)(=O)C1CC1 [Example 57]

Row | Compound | IC50
53 | CC(C)n1ccc(C2=C(C(=O)NS(=O)(=O)C3CC3)C(=O)N[C@@](c3ccc(OCCCC(F)(F)F)cc3F)(C(F)(F)F)C2)n1 [Example 42] | 8 nM
54 | O=C1N[C@@](c2ccc(OCCCC(F)(F)F)cc2F)(C(F)(F)F)CC(c2ccn(C3CCC3)n2)=C1C(=O)NS(=O)(=O)C1CC1 [Example 45] | 17 nM
